From US20240315993A1, “ANTIPARASITIC COMPOUNDS” (Intervet Inc., priority 2021, published 2024)
pEC50: −log10 of the molar value. Read-outs that look alike come from different tables or passages of the source.

How the values were obtained:
[1] = tested on: bed bugs (Cimex lectularius); experiment: Guinea pig - efficacy against bed bug; assay type: in vivo
Summary of the method: (§1)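 Guinea pigs given 5 mg/kg test compound orally (gavage) or s.c. in 10% DMF/emulsifier plus 90% water for injection, with local co-infestations of Ornithodoros moubata juveniles and Cimex lectularius at several post-treatment times. Engorged parasites scored dead/damaged about 24 h after collection; % inhibition versus pretreatment baseline by modified Schneider-Orelli formula.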

[2] = tested on: Mobile stages of sea lice (pre-adults, adults of Lepeophtheirus salmonis); experiment: Adult sea lice contact assay; settings: read-out: EC50 (sea lice inhibition, dead+damaged)
Method: Mobile stages of sea lice (i.e., pre-adults, adults of Lepeophtheirus salmonis) were exposed to seawater spiked with declining concentrations of a test compound (dissolved in a PEG sea-water mixture). Sea lice inhibition (% of dead+damaged sea lice) was assessed after approximately 1 and 24 hours of continuous exposure in comparison to a negative (solvent) control group.

[3] = tested on: Ctenocephalides felis fleas; experiment: Dog - efficacy against fleas; assay type: in vivo; settings: for efficacy against fleas in dogs (conclusion): 10 mg/kg; for therapeutic efficacy against fleas (active = efficacy ≥80 percent): D2
Method: (§2) Beagle dogs were infested (whole body) with 80 Ctenocephalides felis fleas and 50 Rhipicephalus sanguineus or Haemaphysalis elliptica ticks (sex ratio 1:1) two days before the treatment day (Day 0), and repeatedly thereafter. Dogs of treatment groups were treated with 10 mg/kg bodyweight of a test compound orally (compound weighed in gelatin capsule), topically (spot-on, DMA 92%/DEET 8%) or subcutaneously (PEG 200 90%/water for injection 10%). Dogs of the negative control group received only an empty gelatin capsule orally and the spot-on formulation excipients topically.
(§3) Compounds with efficacy ≥80 percent were found active.

[4] = tested on: Rhipicephalus microplus; experiment: Cattle - efficacy against one-host tick; assay type: in vivo
Summary of the method: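 Cattle infested whole-body with up to 3000 R. microplus larvae two or three times weekly around Day 0, then given 1 mg/kg subcutaneously or topically (spray or pour-on); controls got excipients only. Engorged females dropping were counted daily; efficacy by ADEQ per WAAVP guidelines, onset/duration as first/last day ≥80%.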

[5] = tested on: Lepeophtheirus salmonis; experiment: Salmon - in vivo efficacy against sea lice using gavage administration; settings: po, 168 h
[6] = tested on: juvenile soft ticks (Ornithodoros moubata); experiment: Guinea pig - efficacy against argaside tick; assay type: in vivo
Summary of the method: as §1

[7] = tested on: Dermacenter variabilis; experiment: Cattle - efficacy against multi-host ticks (Dermacenter variabilis); assay type: in vivo; settings: for effective in treating existing tick infestations: 5 mg/kg, both administration routes (topical, subcutaneous)
Method: Cattle were treated subcutaneously or topically (pour-on) at a dose of 5 mg/kg bodyweight of a test compound (Day 0). As subcutaneous formulation NMP 60%/PEG300 40% was used, and as pour-on formulation DMA 92%/DEET 8% was used. Cattle of the negative control group received only the formulation excipients of both formulations (SC, pour-on).
Cattle were locally infested with 30 to 40 unfed adult ticks each of Rhipicephalus appendiculatus and Dermacenter variabilis (for both species sex ratio 1:1), by placing the ticks in an ear sleeve (R. appendiculatus) or a stockinet patch attached to the body side (D. variabilis) once before treatment, and at different time points after treatment. Free (i.e., non-attached ticks) were removed from ear sleeves/stockinet patches two days after each infestation and were excluded from the efficacy calculation.
as §3

[8] = tested on: Rhipicephalus sanguineus or Haemaphysalis elliptica ticks; experiment: Dog - efficacy against ticks; assay type: in vivo; settings: for efficacy against ticks in dogs (conclusion): 10 mg/kg; for therapeutic efficacy against ticks (active = efficacy ≥80 percent): D2; for active against ticks up to (efficacy ≥80 percent): repeated infestations
Method: as §2, §3

[9] = tested on: Copepodids (juvenile sea lice stage of Lepeophtheirus salmonis); experiment: Juvenile sea lice contact assay; settings: Lepeophtheirus salmonis, read-out: Sea lice inhibition (% of dead+damaged copepodids)
Method: Copepodids (juvenile sea lice stage of Lepeophtheirus salmonis) were exposed to seawater spiked with declining concentrations of a test compound (dissolved in a DMSO sea-water mixture). Sea lice inhibition (% of dead+damaged copepodids) was assessed after approximately 24 hours of continuous exposure. The vitality of used parasites was confirmed in a negative (solvent) control group.

[10] = 5 mg/kg subcutaneous, after 7 days
[11] = 5 mg/kg subcutaneous, after 10 days
[12] = 1 mg/kg topical (Compound 4: spray solution; others: DMA 92%/DEET 8% pour-on)
[13] = 5 mg/kg subcutaneous, re-infested after 7 days
[14] = 5 mg/kg subcutaneous, re-infested after 14 days
[15] = 5 mg/kg subcutaneous, re-infested after 21 days
[16] = 5 mg/kg subcutaneous, re-infested after 28 days
[17] = 5 mg/kg subcutaneous, therapeutic, Day 2
[18] = 5 mg/kg topical pour-on, re-infested after 7 days
[19] = 5 mg/kg topical pour-on, re-infested after 14 days
[20] = 5 mg/kg topical pour-on, re-infested after 21 days
[21] = 5 mg/kg topical pour-on, therapeutic, Day 2
[22] = 5 mg/kg, at least until Day 10, both administration routes (oral, subcutaneous)
[23] = 1 mg/kg pour on in Imwitor 988+Miglyol 840

## O=C(Nc1ccc(F)cc1F)c1cc(NC(=O)[C@H]2[C@H](c3ccc(F)c(Cl)c3)C2(Cl)Cl)ccc1Cl [Compound 197]
[1]; 5 mg/kg oral, Day 0
  activity against bed bugs (≥80% inhibition, killed+damaged): immediate activity
[1]; 5 mg/kg oral, after 7 days
  activity against bed bugs (≥80% inhibition, killed+damaged): activity
[1]; 5 mg/kg subcutaneous, Day 0
  activity against bed bugs (≥80% inhibition, killed+damaged): immediate activity
[1]; [10]
  activity against bed bugs (≥80% inhibition, killed+damaged): activity
[1]; [11]
  activity against bed bugs (≥80% inhibition, killed+damaged): activity
[2]
  pEC50: 7.60 to 8.00
[3]
  efficacy against fleas in dogs (conclusion): therapeutic efficacy
[3]; 10 mg/kg oral
  therapeutic efficacy against fleas (active = efficacy ≥80 percent): active
[3]; 10 mg/kg topical spot-on
  therapeutic efficacy against fleas (active = efficacy ≥80 percent): active
[4]; 1 mg/kg subcutaneous
  duration of efficacy (last Day with efficacy ≥80 percent): ≥ 120 days
  onset of efficacy (first Day with efficacy ≥80 percent): 3 days
[4]; [12]
  duration of efficacy (last Day with efficacy ≥80 percent): 47 days
  onset of efficacy (first Day with efficacy ≥80 percent): 2 days
[5]; read-out: therapeutic efficacy against (pre-)adult sea lice (% reduction vs control)
  inhibition in vivo at 5 mg/kg: 80%
[6]; 5 mg/kg oral, Day 0
  activity against tick nymphs (≥80% inhibition, killed+damaged): immediate activity
[6]; 5 mg/kg oral, after 7 days
  activity against tick nymphs (≥80% inhibition, killed+damaged): activity
[6]; 5 mg/kg subcutaneous, Day 0
  activity against tick nymphs (≥80% inhibition, killed+damaged): immediate activity
[6]; [10]
  activity against tick nymphs (≥80% inhibition, killed+damaged): activity
[6]; [11]
  activity against tick nymphs (≥80% inhibition, killed+damaged): activity
[6]; 5 mg/kg, ticks and bed bugs
  duration of efficacy, subcutaneous compared with oral administration: longer duration of efficacy
[7]; [13]
  efficacy ≥80 percent against Dermacenter variabilis: prophylactic efficacy
[7]; [14]
  efficacy ≥80 percent against Dermacenter variabilis: prophylactic efficacy
[7]; [15]
  efficacy ≥80 percent against Dermacenter variabilis: prophylactic efficacy
[7]; [16]
  efficacy ≥80 percent against Dermacenter variabilis: prophylactic efficacy
[7]; [17]
  efficacy ≥80 percent against Dermacenter variabilis: therapeutic efficacy
[7]; [18]
  efficacy ≥80 percent against Dermacenter variabilis: prophylactic efficacy
[7]; [19]
  efficacy ≥80 percent against Dermacenter variabilis: prophylactic efficacy
[7]; [20]
  efficacy ≥80 percent against Dermacenter variabilis: prophylactic efficacy
[7]; [21]
  efficacy ≥80 percent against Dermacenter variabilis: therapeutic efficacy
[7]
  effective in treating existing tick infestations: 100%
[8]
  efficacy against ticks in dogs (conclusion): therapeutic efficacy
[8]; 10 mg/kg oral
  therapeutic efficacy against ticks (active = efficacy ≥80 percent): active
[8]; 10 mg/kg topical spot-on
  active against ticks up to (efficacy ≥80 percent): 70/72
[9]; 24 h
  inhibition at 0.001 µM: 100%

## O=C(Nc1ncc(F)cc1F)c1cc(NC(=O)[C@H]2[C@H](c3cc(Cl)cc(Cl)c3)C2(Cl)Cl)ccc1Cl [Compound 453]
[1]; 5 mg/kg oral, Day 0
  activity against bed bugs (≥80% inhibition, killed+damaged): immediate activity
[1]; 5 mg/kg oral, after 7 days
  activity against bed bugs (≥80% inhibition, killed+damaged): activity
[1]; 5 mg/kg oral, after 10 days
  activity against bed bugs (≥80% inhibition, killed+damaged): activity
[1]; 5 mg/kg subcutaneous, Day 0
  activity against bed bugs (≥80% inhibition, killed+damaged): immediate activity
[1]; [10]
  activity against bed bugs (≥80% inhibition, killed+damaged): activity
[1]; [11]
  activity against bed bugs (≥80% inhibition, killed+damaged): activity
[1]; [22]
  effective to control bed bugs: 100%
[2]; pre-adults/adults, assessed after ~1 and 24 h
  pEC50: ≥ 8.00
[3]
  efficacy against fleas in dogs (conclusion): therapeutic efficacy
[3]; 10 mg/kg oral
  therapeutic efficacy against fleas (active = efficacy ≥80 percent): active
[3]; 10 mg/kg topical spot-on
  therapeutic efficacy against fleas (active = efficacy ≥80 percent): active
[4]; [23]
  duration of efficacy (last Day with efficacy ≥80 percent): 77 days
  onset of efficacy (first Day with efficacy ≥80 percent): 1 days
[4]; 1 mg/kg pour on in Miglyol 840
  duration of efficacy (last Day with efficacy ≥80 percent): 84 days
  onset of efficacy (first Day with efficacy ≥80 percent): 2 days
[4]; 1 mg/kg subcutaneous
  duration of efficacy (last Day with efficacy ≥80 percent): 82 days
  onset of efficacy (first Day with efficacy ≥80 percent): 3 days
[4]; [12]
  duration of efficacy (last Day with efficacy ≥80 percent): 63 days
  onset of efficacy (first Day with efficacy ≥80 percent): 3 days
[5]; read-out: therapeutic efficacy against (pre-)adult sea lice (% reduction vs control), salmon, 5 mg/kg once by gavage, day -28 infestation, counted day 7
  inhibition in vivo at 5 mg/kg: 100%
[6]; 5 mg/kg oral, Day 0
  activity against tick nymphs (≥80% inhibition, killed+damaged): immediate activity
[6]; 5 mg/kg oral, after 7 days
  activity against tick nymphs (≥80% inhibition, killed+damaged): activity
[6]; 5 mg/kg oral, after 10 days
  activity against tick nymphs (≥80% inhibition, killed+damaged): activity
[6]; 5 mg/kg subcutaneous, Day 0
  activity against tick nymphs (≥80% inhibition, killed+damaged): immediate activity
[6]; [10]
  activity against tick nymphs (≥80% inhibition, killed+damaged): activity
[6]; [11]
  activity against tick nymphs (≥80% inhibition, killed+damaged): activity
[6]; [22]
  effective to control ticks: 100%
[7]; [13]
  efficacy ≥80 percent against Dermacenter variabilis: prophylactic efficacy
[7]; [14]
  efficacy ≥80 percent against Dermacenter variabilis: prophylactic efficacy
[7]; [15]
  efficacy ≥80 percent against Dermacenter variabilis: prophylactic efficacy
[7]; [16]
  efficacy ≥80 percent against Dermacenter variabilis: prophylactic efficacy
[7]; 5 mg/kg subcutaneous, re-infested after 35 days
  efficacy ≥80 percent against Dermacenter variabilis: prophylactic efficacy
[7]; [17]
  efficacy ≥80 percent against Dermacenter variabilis: therapeutic efficacy
[7]; [18]
  efficacy ≥80 percent against Dermacenter variabilis: prophylactic efficacy
[7]; [19]
  efficacy ≥80 percent against Dermacenter variabilis: prophylactic efficacy
[7]; [20]
  efficacy ≥80 percent against Dermacenter variabilis: prophylactic efficacy
[7]; 5 mg/kg topical pour-on, re-infested after 28 days
  efficacy ≥80 percent against Dermacenter variabilis: prophylactic efficacy
[7]; 5 mg/kg topical pour-on, re-infested after 35 days
  efficacy ≥80 percent against Dermacenter variabilis: prophylactic efficacy
[7]; [21]
  efficacy ≥80 percent against Dermacenter variabilis: therapeutic efficacy
[7]
  effective in treating existing tick infestations: 100%
[8]
  efficacy against ticks in dogs (conclusion): therapeutic efficacy
[8]; 10 mg/kg oral
  therapeutic efficacy against ticks (active = efficacy ≥80 percent): active
[8]; 10 mg/kg topical spot-on
  therapeutic efficacy against ticks (active = efficacy ≥80 percent): active
  active against ticks up to (efficacy ≥80 percent): 70/72
[9]; 1 nM in seawater, ~24 h
  inhibition at 0.001 µM: 100%
